Measurements published in patent US8247211B2, “Glycopeptide antibiotics” (American Cyanamid Company, priority 2001, dated 2012).
In brackets after ≈: the same amount, converted by molar mass.

Assays:
Assay in all cases: In vitro antibacterial evaluation: minimum inhibitory concentration (MIC), broth dilution method
Type in all cases: cell-based
Enterococcus sp. = conditions: 18 hours at 35° C.
Outline: (§1)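 NCCLS M7-A2 broth dilution with Mueller-Hinton II, testing 64-0.06 μg/mL antibiotic against 5×10^5 CFU/mL inocula. Test strains include recent methicillin-, penicillin- or vancomycin-resistant clinical isolates. MIC is the lowest concentration preventing growth.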

Streptococcus sp. = conditions: 18 hours at 35° C.
Outline: as §1

Escherichia coli = conditions: 18 hours at 35° C.
Outline: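 NCCLS M7-A2 broth dilution; Muller-Hinton II […]; 5×10^5 CFU/mL; 64-0.06 μg/mL. MIC = lowest concentration with no growth.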

Staphylococcus sp. = system: Staphylococcus sp.
Outline: as §1

[1] = broth dilution, inoculum 5×10^5 CFU/mL

- MIC Enterococcus avium (GC 4558) (Enterococcus sp.; Enterococcus avium (GC 4558)): 1 µg/mL (≈ 0.72 µM)
- MIC Enterococcus faecalis (ATCC 29212) (Enterococcus sp.; Enterococcus faecalis (ATCC 29212)): 1 µg/mL (≈ 0.72 µM)
- MIC Enterococcus faecalis (GC 2242) (Enterococcus sp.; Enterococcus faecalis (GC 2242)): 1 µg/mL (≈ 0.72 µM)
- MIC Enterococcus faecalis (GC 2691) (Enterococcus sp.; Enterococcus faecalis (GC 2691)): 1 µg/mL (≈ 0.72 µM)
- MIC Enterococcus faecalis (GC 3059) (Enterococcus sp.; Enterococcus faecalis (GC 3059)): 1 µg/mL (≈ 0.72 µM)
- MIC Enterococcus faecalis (GC 4552) (Enterococcus sp.; Enterococcus faecalis (GC 4552)): 1 µg/mL (≈ 0.72 µM)
- MIC Enterococcus faecalis (GC 4553) (Enterococcus sp.; Enterococcus faecalis (GC 4553)): 1 µg/mL (≈ 0.72 µM)
- MIC Enterococcus faecalis (GC 4554) (Enterococcus sp.; Enterococcus faecalis (GC 4554)): 1 µg/mL (≈ 0.72 µM)
- MIC Enterococcus faecalis (GC 6189) (Enterococcus sp.; Enterococcus faecalis (GC 6189)): 1 µg/mL (≈ 0.72 µM)
- MIC Enterococcus faecium (GC 2243) (Enterococcus sp.; Enterococcus faecium (GC 2243)): 1 µg/mL (≈ 0.72 µM)
- MIC Enterococcus faecium (GC 4556) (Enterococcus sp.; Enterococcus faecium (GC 4556)): 1 µg/mL (≈ 0.72 µM)
- MIC Enterococcus faecium (GC 4557) (Enterococcus sp.; Enterococcus faecium (GC 4557)): 0.5 µg/mL (≈ 0.36 µM)
- MIC Enterococcus avium (GC 4558) (Enterococcus sp.; [1]): 1 µg/mL (≈ 0.72 µM)
- MIC Enterococcus faecalis (ATCC 29212) (Enterococcus sp.; [1]): 1 µg/mL (≈ 0.72 µM)
- MIC Enterococcus faecalis (GC 2242) (Enterococcus sp.; [1]): 1 µg/mL (≈ 0.72 µM)
- MIC Enterococcus faecalis (GC 2691) (Enterococcus sp.; [1]): 1 µg/mL (≈ 0.72 µM)
- MIC Enterococcus faecalis (GC 3059) (Enterococcus sp.; [1]): 1 µg/mL (≈ 0.72 µM)
- MIC Enterococcus faecalis (GC 4552) (Enterococcus sp.; [1]): 1 µg/mL (≈ 0.72 µM)
- MIC Enterococcus faecalis (GC 4553) (Enterococcus sp.; [1]): 1 µg/mL (≈ 0.72 µM)
- MIC Enterococcus faecalis (GC 4554) (Enterococcus sp.; [1]): 1 µg/mL (≈ 0.72 µM)
- MIC Enterococcus faecalis (GC 6189) (Enterococcus sp.; [1]): 1 µg/mL (≈ 0.72 µM)
- MIC Enterococcus faecium (GC 2243) (Enterococcus sp.; [1]): 1 µg/mL (≈ 0.72 µM)
- MIC Enterococcus faecium (GC 4556) (Enterococcus sp.; [1]): 1 µg/mL (≈ 0.72 µM)
- MIC Enterococcus faecium (GC 4557) (Enterococcus sp.; [1]): 0.5 µg/mL (≈ 0.36 µM)
- MIC Streptococcus agalactiae (GC 4564) (Streptococcus sp.; Streptococcus agalactiae (GC 4564)): <0.12 µg/mL
- MIC Streptococcus pneumoniae (ATCC 6301) (Streptococcus sp.; Streptococcus pneumoniae (ATCC 6301)): <0.12 µg/mL
- MIC Streptococcus pneumoniae (GC 1894) (Streptococcus sp.; Streptococcus pneumoniae (GC 1894)): <0.12 µg/mL
- MIC Streptococcus pneumoniae (GC 4565) (Streptococcus sp.; Streptococcus pneumoniae (GC 4565)): <0.12 µg/mL
- MIC Streptococcus pyogenes (GC 4563) (Streptococcus sp.; Streptococcus pyogenes (GC 4563)): <0.12 µg/mL
- MIC Streptococcus agalactiae (GC 4564) (Streptococcus sp.; [1]): <0.12 µg/mL
- MIC Streptococcus pneumoniae (ATCC 6301) (Streptococcus sp.; [1]): <0.12 µg/mL
- MIC Streptococcus pneumoniae (GC 1894) (Streptococcus sp.; [1]): <0.12 µg/mL
- MIC Streptococcus pneumoniae (GC 4565) (Streptococcus sp.; [1]): <0.12 µg/mL
- MIC Streptococcus pyogenes (GC 4563) (Streptococcus sp.; [1]): <0.12 µg/mL
- MIC Escherichia coli (ATCC 25922) (Escherichia coli; Escherichia coli (ATCC 25922)): 16 µg/mL (≈ 11.5 µM)
- MIC Escherichia coli (GC 4559) (Escherichia coli; Escherichia coli (GC 4559)): 16 µg/mL (≈ 11.5 µM)
- MIC Escherichia coli (GC 4560) (Escherichia coli; Escherichia coli (GC 4560)): 0.25 µg/mL (≈ 0.18 µM)
- MIC Staphylococcus aureus (ATCC 29213) (Staphylococcus sp.; strain ATCC 29213): 0.25 µg/mL (≈ 0.18 µM)
- MIC Staphylococcus aureus (GC 1131) (Staphylococcus sp.; strain GC 1131): 0.25 µg/mL (≈ 0.18 µM)
- MIC Staphylococcus aureus (GC 3051) (Staphylococcus sp.; strain GC 3051): 0.5 µg/mL (≈ 0.36 µM)
- MIC Staphylococcus aureus (GC 3053) (Staphylococcus sp.; strain GC 3053): 0.5 µg/mL (≈ 0.36 µM)
- MIC Staphylococcus aureus (GC 4541) (Staphylococcus sp.; strain GC 4541): 0.5 µg/mL (≈ 0.36 µM)
- MIC Staphylococcus aureus (GC 4542) (Staphylococcus sp.; strain GC 4542): 0.25 µg/mL (≈ 0.18 µM)
- MIC Staphylococcus aureus-SMITH (GC 4543) (Staphylococcus sp.; strain GC 4543): 0.5 µg/mL (≈ 0.36 µM)
- MIC Staphylococcus aureus (GC 4544) (Staphylococcus sp.; strain GC 4544): 0.25 µg/mL (≈ 0.18 µM)
- MIC Staphylococcus aureus (GC 4545) (Staphylococcus sp.; strain GC 4545): 0.25 µg/mL (≈ 0.18 µM)
- MIC Coagulase Negative Staphylococcus (GC 4547) (Staphylococcus sp.; strain GC 4547): 0.25 µg/mL (≈ 0.18 µM)
- MIC Coagulase Negative Staphylococcus (GC 4548) (Staphylococcus sp.; strain GC 4548): 0.25 µg/mL (≈ 0.18 µM)
- MIC Coagulase Negative Staphylococcus (GC 4549) (Staphylococcus sp.; strain GC 4549): 0.25 µg/mL (≈ 0.18 µM)
- MIC Coagulase Negative Staphylococcus (GC 4551) (Staphylococcus sp.; strain GC 4551): 0.25 µg/mL (≈ 0.18 µM)
Structure (SMILES): CC(C1CCCCC1)C1NC(=O)CNC(=O)C(CO)NC(=O)C(C(O)C2CNC(=N)N2C2OC(CO)C(O)C(O)C2O)NC(=O)C(C(O)C2CNC(=N)N2)NC(=O)C(Cc2ccc(OC3OC(CO)C(OC4OC5COC(c6ccccc6)OC5C(O)C4O)C(O)C3O)cc2)NC1=O (stereo not drawn) [Example 201, Cyclo[3-cyclohexyl-2-aminobutanoyl-O-[4-O-[4,6-O-benzylidenehexonyranosyl]hexopyranosyl]tyrosyl-3-(2-iminoimidazolidin-4-yl)seryl-3-(3-hexopyranosyl-2-iminoimidazolidin-4-yl)serylserylglycyl]]
- MIC Staphylococcus haemolyticus (GC 4546) (Staphylococcus sp.; strain GC 4546): 0.25 µg/mL (≈ 0.18 µM)
